In brackets after ≈: the same amount, converted by molar mass. Like-named read-outs stand apart in the source and are kept apart here.
What was measured:
[1] = test system: Staphylococcus epidermidis (Coagulase-negative Staphylococcus) fluoroquinolone-resistant; experiment: MIC, 25 ocular isolates, broth microdilution (Example 8); format: cell-based
Experimental: (§1) • Mueller-Hinton Broth in tubes was inoculated with 25 ocular isolates of Staphylococcus aureus fluoroquinolone-susceptible, Staphylococcus aureus fluoroquinolone-resistant, Staphylococcus epidermidis (Coagulase-negative Staphylococcus) fluoroquinolone-susceptible, Staphylococcus epidermidis (Coagulase-negative Staphylococcus) fluoroquinolone-resistant, Pseudomonas aeruginosa and Serratia marcescens, plus two controls (Staphylococcus aureus and E. coli) and incubated at 37° C. overnight on a shaker set at 250 rpm.
(§2) On the day of testing, a 640 μg/ml (1280 μg/ml for Serratia marcescens and Pseudomonas aeruginosa) concentration was prepared from a 1% stock solution in 0.01% acetic acid, 0.2% BSA in polypropylene tubes.
(§3) Serial doubling dilutions in 0.01% acetic acid, 0.2% BSA in 96 well polypropylene plates, which are used as reservoirs for the inoculation of the test plates, were carried out to obtain serial dilutions of test agents at 10 times the required test concentrations: 640, 320, 160, 80, 40, 20, 10, 5, 2.5, 1.25, and 0.625 μg/ml (1280, 640, 320, 160, 80, 40, 20, 10, 5, 2.5, and 1.25 μg/ml for Serratia marcescens and Pseudomonas aeruginosa).
(§4) Ten μl of diluted 10×test agents was added to each well of one row of the 96 well polypropylene plates from column 2 to column 12 (column 1 is a control for bacteria alone, with no peptide). Test agent concentrations in columns 2-12 were as follows: 64, 32, 16, 8, 4, 2, 1, 0.5, 0.25, 0.125, and 0.0625 μg/ml (128, 64, 32, 16, 8, 4, 2, 1, 0.5, 0.25, and 0.125 μg/ml for Serratia marcescens and Pseudomonas aeruginosa). The same peptide was in each of the 8 rows. One plate contained dilutions of one test agent and 8 bacterial isolates.
(§5) On the day of testing, the overnight bacterial broth cultures of Staphylococcus aureus fluoroquinolone-susceptible, Staphylococcus aureus fluoroquinolone-resistant, Staphylococcus epidermidis (Coagulase-negative Staphylococcus) fluoroquinolone-susceptible, Staphylococcus epidermidis (Coagulase-negative Staphylococcus) fluoroquinolone-resistant, Serratia marcescens, and Pseudomonas aeruginosa, plus two controls (Staphylococcus aureus and E. coli) were diluted in 5 ml of trypticase soy broth to yield turbidity equal to a 0.5 McFarland standard. The final inoculum for MIC testing for Staphylococcus aureus fluoroquinolone-susceptible, Staphylococcus aureus fluoroquinolone-resistant, Staphylococcus epidermidis (Coagulase-negative Staphylococcus) fluoroquinolone-susceptible, Staphylococcus epidermidis (Coagulase-negative Staphylococcus) fluoroquinolone-resistant, Serratia marcescens, and Pseudomonas aeruginosa was achieved by placing 0.05 ml of the turbidity adjusted sample to 5 ml of Mueller-Hinton broth.
(§6) Ninety μl of the bacterial suspensions was dispensed in each well from column 1 to column 12. Each bacterial isolate was placed in one row of a 96 well polypropylene plate containing the test agents. The plates were placed on shaker at 15 minutes at room temperature, and then incubated at 37° C. overnight. MICs were determined visually as the lowest concentration of drug that inhibits visible bacterial growth.

[2] = test system: Staphylococcus aureus fluoroquinolone-resistant; experiment: as above; format: cell-based
Experimental: as §1, §2, §3, §4, §5, §6

Compound: N=C(N)NCCCCC(=O)Nc1cc(C(F)(F)F)cc(NC(=O)c2cnc(C(=O)Nc3cc(C(F)(F)F)cc(NC(=O)CCCCNC(=N)N)c3SCCN)cn2)c1SCCN [Oligomer 5]
- MIC50 ([1]; 25 isolates, Row 13): 0.125 µg/mL (≈ 0.136 µM)
- MIC90 ([1]; 25 isolates, Row 22): 0.25 µg/mL (≈ 0.273 µM)
- Range of MICs ([1]; 25 isolates, Summary of Results, <0.0625 was Replaced with 0.03125): 0.03125 to 0.5 µg/mL
- MIC ([1]; Staphylococcus epidermidis, 25 ocular isolates, read-out: Median MIC): ≤ 0.25 µg/mL
- MIC ([1]; Staphylococcus epidermidis, isolate 1—E515, read-out: MIC): 0.125 µg/mL (≈ 0.136 µM)
- MIC ([1]; Staphylococcus epidermidis, isolate 2—E514, read-out: MIC): 0.125 µg/mL (≈ 0.136 µM)
- MIC ([1]; Staphylococcus epidermidis, isolate 3—E513, read-out: MIC): 0.125 µg/mL (≈ 0.136 µM)
- MIC ([1]; Staphylococcus epidermidis, isolate 4—E510, read-out: MIC): 0.125 µg/mL (≈ 0.136 µM)
- MIC ([1]; Staphylococcus epidermidis, isolate 5—E509, read-out: MIC): 0.125 µg/mL (≈ 0.136 µM)
- MIC ([1]; Staphylococcus epidermidis, isolate 6—E508, read-out: MIC): 0.125 µg/mL (≈ 0.136 µM)
- MIC ([1]; Staphylococcus epidermidis, isolate 7—E505, read-out: MIC): 0.125 µg/mL (≈ 0.136 µM)
- MIC ([1]; Staphylococcus epidermidis, isolate 8—E503, read-out: MIC): 0.125 µg/mL (≈ 0.136 µM)
- MIC ([1]; Staphylococcus epidermidis, isolate 9—E502, read-out: MIC): 0.25 µg/mL (≈ 0.273 µM)
- MIC ([1]; Staphylococcus epidermidis, isolate 10—E499, read-out: MIC): 0.25 µg/mL (≈ 0.273 µM)
- MIC ([1]; Staphylococcus epidermidis, isolate 11—E498, read-out: MIC): 0.125 µg/mL (≈ 0.136 µM)
- MIC ([1]; Staphylococcus epidermidis, isolate 12—E494, read-out: MIC): 0.125 µg/mL (≈ 0.136 µM)
- MIC ([1]; Staphylococcus epidermidis, isolate 13—E493, read-out: MIC): 0.125 µg/mL (≈ 0.136 µM)
- MIC ([1]; Staphylococcus epidermidis, isolate 14—E485, read-out: MIC): 0.125 µg/mL (≈ 0.136 µM)
- MIC ([1]; Staphylococcus epidermidis, isolate 15—E487, read-out: MIC): < 0.0625 µg/mL
- MIC ([1]; Staphylococcus epidermidis, isolate 16—E486, read-out: MIC): 0.125 µg/mL (≈ 0.136 µM)
- MIC ([1]; Staphylococcus epidermidis, isolate 17—E480, read-out: MIC): 0.125 µg/mL (≈ 0.136 µM)
- MIC ([1]; Staphylococcus epidermidis, isolate 18—E475, read-out: MIC): 0.125 µg/mL (≈ 0.136 µM)
- MIC ([1]; Staphylococcus epidermidis, isolate 19—E471, read-out: MIC): 0.125 µg/mL (≈ 0.136 µM)
- MIC ([1]; Staphylococcus epidermidis, isolate 20—E458, read-out: MIC): 0.125 µg/mL (≈ 0.136 µM)
- MIC ([1]; Staphylococcus epidermidis, isolate 21—E452, read-out: MIC): 0.5 µg/mL (≈ 0.545 µM)
- MIC ([1]; Staphylococcus epidermidis, isolate 22—E450, read-out: MIC): 0.125 µg/mL (≈ 0.136 µM)
- MIC ([1]; Staphylococcus epidermidis, isolate 23—E440, read-out: MIC): 0.125 µg/mL (≈ 0.136 µM)
- MIC ([1]; Staphylococcus epidermidis, isolate 24—E446, read-out: MIC): < 0.0625 µg/mL
- MIC ([1]; Staphylococcus epidermidis, isolate 25—E444, read-out: MIC): 0.25 µg/mL (≈ 0.273 µM)
- MIC ([1]; Staphylococcus epidermidis, n=25 per group, read-out: Median MIC): 0.125 µg/mL (≈ 0.136 µM)
- MIC50 ([1]; Staphylococcus epidermidis, 25 isolates, Summary of Results, read-out: MIC50): 0.125 µg/mL (≈ 0.136 µM)
- MIC90 ([1]; Staphylococcus epidermidis, 25 isolates, Summary of Results, read-out: MIC90): 0.25 µg/mL (≈ 0.273 µM)
- MIC ([1]; Staphylococcus epidermidis, 25 isolates, Summary of Results, read-out: Median MIC): 0.125 µg/mL (≈ 0.136 µM)
- MIC50 ([1]; n=25 per group): 0.125 µg/mL (≈ 0.136 µM)
- MIC90 ([1]; n=25 per group): 0.25 µg/mL (≈ 0.273 µM)
- Range of MICs ([1]; n=25 per group): 0.03125 to 0.5 µg/mL
- MIC50 ([2]; 25 isolates, Row 13): 0.25 µg/mL (≈ 0.273 µM)
- MIC90 ([2]; 25 isolates, Row 22): 0.5 µg/mL (≈ 0.545 µM)
- Range of MICs ([2]; 25 isolates, Summary of Results): 0.125 to 0.5 µg/mL
- MIC ([2]; Staphylococcus aureus, 25 ocular isolates, read-out: Median MIC): ≤ 0.25 µg/mL
- MIC ([2]; Staphylococcus aureus, isolate 1—E504, read-out: MIC): 0.5 µg/mL (≈ 0.545 µM)
- MIC ([2]; Staphylococcus aureus, isolate 2—E475, read-out: MIC): 0.25 µg/mL (≈ 0.273 µM)
- MIC ([2]; Staphylococcus aureus, isolate 3—E442, read-out: MIC): 0.25 µg/mL (≈ 0.273 µM)
- MIC ([2]; Staphylococcus aureus, isolate 4—E427, read-out: MIC): 0.5 µg/mL (≈ 0.545 µM)
- MIC ([2]; Staphylococcus aureus, isolate 5—E425, read-out: MIC): 0.25 µg/mL (≈ 0.273 µM)
- MIC ([2]; Staphylococcus aureus, isolate 6—E424, read-out: MIC): 0.25 µg/mL (≈ 0.273 µM)
- MIC ([2]; Staphylococcus aureus, isolate 7—E417, read-out: MIC): 0.25 µg/mL (≈ 0.273 µM)
- MIC ([2]; Staphylococcus aureus, isolate 8—E407, read-out: MIC): 0.125 µg/mL (≈ 0.136 µM)
- MIC ([2]; Staphylococcus aureus, isolate 9—E401, read-out: MIC): 0.25 µg/mL (≈ 0.273 µM)
- MIC ([2]; Staphylococcus aureus, isolate 10—K1659, read-out: MIC): 0.25 µg/mL (≈ 0.273 µM)
- MIC ([2]; Staphylococcus aureus, isolate 11—E96, read-out: MIC): 0.25 µg/mL (≈ 0.273 µM)
- MIC ([2]; Staphylococcus aureus, isolate 12—E379, read-out: MIC): 0.5 µg/mL (≈ 0.545 µM)
- MIC ([2]; Staphylococcus aureus, isolate 13—E369, read-out: MIC): 0.5 µg/mL (≈ 0.545 µM)
- MIC ([2]; Staphylococcus aureus, isolate 14—E361, read-out: MIC): 0.25 µg/mL (≈ 0.273 µM)
- MIC ([2]; Staphylococcus aureus, isolate 15—E339, read-out: MIC): 0.25 µg/mL (≈ 0.273 µM)
- MIC ([2]; Staphylococcus aureus, isolate 16—E333, read-out: MIC): 0.125 µg/mL (≈ 0.136 µM)
- MIC ([2]; Staphylococcus aureus, isolate 17—E332, read-out: MIC): 0.25 µg/mL (≈ 0.273 µM)
- MIC ([2]; Staphylococcus aureus, isolate 18—E327, read-out: MIC): 0.25 µg/mL (≈ 0.273 µM)
- MIC ([2]; Staphylococcus aureus, isolate 19—E325, read-out: MIC): 0.25 µg/mL (≈ 0.273 µM)
- MIC ([2]; Staphylococcus aureus, isolate 20—K950, read-out: MIC): 0.25 µg/mL (≈ 0.273 µM)
- MIC ([2]; Staphylococcus aureus, isolate 21—K839, read-out: MIC): 0.25 µg/mL (≈ 0.273 µM)
- MIC ([2]; Staphylococcus aureus, isolate 22—K1679, read-out: MIC): 0.25 µg/mL (≈ 0.273 µM)
- MIC ([2]; Staphylococcus aureus, isolate 23—K1677, read-out: MIC): 0.5 µg/mL (≈ 0.545 µM)
- MIC ([2]; Staphylococcus aureus, isolate 24—K1672, read-out: MIC): 0.25 µg/mL (≈ 0.273 µM)
- MIC ([2]; Staphylococcus aureus, isolate 25—K1670, read-out: MIC): 0.25 µg/mL (≈ 0.273 µM)
- MIC ([2]; Staphylococcus aureus, n=25 per group, read-out: Median MIC): 0.25 µg/mL (≈ 0.273 µM)
- MIC50 ([2]; Staphylococcus aureus, 25 isolates, Summary of Results, read-out: MIC50): 0.25 µg/mL (≈ 0.273 µM)
- MIC90 ([2]; Staphylococcus aureus, 25 isolates, Summary of Results, read-out: MIC90): 0.5 µg/mL (≈ 0.545 µM)
- MIC ([2]; Staphylococcus aureus, 25 isolates, Summary of Results, read-out: Median MIC): 0.25 µg/mL (≈ 0.273 µM)
- MIC50 ([2]; n=25 per group): 0.25 µg/mL (≈ 0.273 µM)
- MIC90 ([2]; n=25 per group): 0.5 µg/mL (≈ 0.545 µM)
- Range of MICs ([2]; n=25 per group): 0.125 to 0.5 µg/mL
